Measurements published in US11744808B2, “Compositions and methods for treating non-alcoholic steatohepatitis” (ALGERNON PHARMACEUTICALS INC., priority 2018, dated 2023).

How the values were obtained:
[1] = tested on: murine STAM™ model of NASH-HCC; test: Murine STAM model of NASH-HCC, second study (Example 2): H&E NAFLD activity scoring and Sirius red fibrosis area; type: in vivo, C57BL/6 mice; conditions: for NAFLD Activity Scores, hepatic steatosis, lobular inflammation and hepatocellular ballooning (conclusion): Bromantane at 40 mg/kg, Cenicriviroc at 30 mg/kg
Protocol: As before, male newborn C57BL/6 mice were used. All mice were born from pathogen-free 14 day-pregnant mice obtained from Japan SLC, Inc. (Hamamatsu, Japan) prior to the start of the study.
(§1) The murine STAM™ model of NASH-HCC was performed according to previously described methods known in the art (Takakura et al, Characterization of non-alcoholic steatohepatitis, Anticancer Res, 34(9):4849-55 (2014); Fujii et al, (2013)). NASH was induced in male mice by a single subcutaneous injection of 200 μg of streptozotocin (STZ, Sigma, Mo., USA) at 2 days after birth and continuous feeding after 4 weeks of age (day 28±2) with a high fat diet (CLEA Japan Inc, Tokyo, Japan) given ad libitum.
Following induction of NASH, the mice were randomized into 7 individual study groups of 8 mice each at 6 weeks of age (day 42±2) based on their body weight, the day before the start of treatment.
One day following randomization, the mice were administered a once-daily oral treatment from 6 weeks of age plus one day (day 43±2, treatment Day 1) to 9 weeks of age. The mice in 6 of the 7 study groups were treated individually with a therapeutic amount of a pharmacologic compound formulated with a pharmaceutically acceptable vehicle. […] The pharmaceutically acceptable vehicle in all groups was 0.5% CMC. […] Individual body weight was measured daily during the treatment period. Survival, clinical signs and behavior of mice were also monitored daily.
In each case, a volume of 10 mL/kg of 0.5% CMC was administered orally with (or without) the active ingredient as noted in Table 3 from 6 to 9 weeks of age. All mice were then sacrificed at 9 weeks of age. Blood samples were collected from all mice and the liver from each mouse was removed for analysis.
(§2) Assessment of Steatohepatitis: Liver cross-sections were subjected to hematoxylin and eosin (H&E) staining using standard techniques for histological assessment of hepatic steatosis, lobular inflammation and hepatocellular ballooning. The level of steatohepatitis severity in each liver cross-section was indicated by NAFLD Activity Scores of: 0 (normal), 1-2 (NAFLD), 3-4 (borderline) or at least 5 (NASH) in 3 randomly selected fields of H&E-stained liver cross-sections of 4 μm thickness at ×50 magnification for evaluation of steatosis and ×200 magnification each for evaluation of inflammation and evaluation of ballooning. The NAFLD Activity Score is the unweighted sum of the following: 1) hepatic steatosis score (0-3); 2) lobular inflammation score ([…]); 3) hepatocellular ballooning score (0-2).
The liver cross-sections of the treated groups were also subjected to Sirius-red staining using standard techniques for histological estimation of the percentage of fibrosis area. For quantitative analysis of fibrosis area, bright field images of Sirius red-stained sections were captured around the central vein using a digital camera (DFC295; Leica, Germany) at 200-fold magnification, and the positive areas in 5 fields/section were measured using ImageJ software (National Institute of Health, USA).
(§3) Values are arithmetic means. Comparison between the study group and positive control group was performed using a two-tailed, heteroscedastic (two-sample unequal variance) Student's T-Test. A P-value of <0.05 was considered statistically significant following a Bonferroni post-hoc statistical correction analysis for multiple groups (Bonferroni Multiple Comparison Test). In this case, the correction factor was 7, corresponding to the number of study groups. Following the usual convention, the P-value classification and statistical significance levels chosen are shown in Table 2 (above) alongside their corresponding classification scores.

[2] = tested on: murine STAM™ model of NASH-HCC; test: Murine STAM model of NASH-HCC, first study (Example 1): H&E NAFLD activity scoring and Sirius red fibrosis area; type: in vivo, C57BL/6 mice; conditions: for hepatocellular ballooning score relative to Vehicle control / NAFLD activity score relative to Vehicle control / fibrosis area (Sirius red-positive area) compared with the Vehicle group: once daily oral, 6 to 9 weeks of age, Bromantane 20 mg/kg, Istradefylline 18 mg/kg; for hepatocellular ballooning score relative to Vehicle control: Irsogladine 1 mg/kg; for NAFLD activity score relative to Vehicle control / fibrosis area (Sirius red-positive area) compared with the Vehicle group: Telmisartan 10 mg/kg
Protocol: Male newborn C57BL/6 mice were used. All mice were born from pathogen-free 14 day-pregnant mice obtained from Japan SLC, Inc. (Hamamatsu, Japan) prior to the start of the study.
as §1
Following induction of NASH, the mice were randomized into 12 individual study groups of 8 mice each at 6 weeks of age (day 42±2) based on body weight, the day before the start of treatment.
One day following randomization, the mice were administered a once-daily oral treatment from 6 weeks of age plus one day (day 43±2, treatment Day 1) to 9 weeks of age (hereinafter known as the “treatment period”). The mice in 11 of the 12 study groups (hereafter known as “treatment groups”) were treated individually with a distinct pharmacologic compound formulated with a pharmaceutically acceptable vehicle. […] The pharmaceutically acceptable vehicle in all groups was 0.5% carboxymethyl cellulose (CMC). […] Individual body weight was measured daily during the treatment period. Survival, clinical signs and behavior of mice were also monitored daily.
In each case, a volume of 10 mL/kg of 0.5% CMC was administered orally with (or without) the active ingredient as noted in Table 1 from 6 to 9 weeks of age until sacrifice. One exception being Trapadil, which was administered orally with one dosing of 120 mg/kg on Day 0 and then at the daily dose of 60 mg/kg starting on treatment Day 1. All mice were then sacrificed at 9 weeks of age. Blood samples were collected from all mice and the liver from each mouse was removed for analysis.
as §2
For quantitative analysis of fibrosis area, bright field images of Sirius red-stained sections were captured around the central vein using a digital camera (DFC295; Leica, Germany) at 200-fold magnification, and the positive areas in 5 fields/section were measured using ImageJ software (National Institute of Health, USA).
as §3, with “12,” for “7,”, “2” for “2 (above)”

[3] = once daily oral, 6 to 9 weeks of age, Bromantane high 40 mg/kg, Bemithyl 200 mg/kg, Cenicriviroc 30 mg/kg, Telmisartan 10 mg/kg
[4] = once daily oral, 6 to 9 weeks of age, Bromantane high 40 mg/kg, Cenicriviroc 30 mg/kg, Bemithyl 200 mg/kg, Telmisartan 10 mg/kg

## CCSc1nc2ccccc2[nH]1 [Bemithyl, 2-Ethylsulfanyl-1H-benzoimidazole]
[1]; [3]
  fibrosis area (Sirius red-positive area) compared with the Vehicle group: particularly statistically significant decrease
[1]; [4]
  NAFLD activity score relative to Vehicle control: statistically significant and clinically relevant composite reduction

## Brc1ccc(NC2C3CC4CC(C3)CC2C4)cc1 (stereo not drawn) [Bromantane, N-(4-Bromophenyl)adamantan-2-amine]
[2]
  hepatocellular ballooning score relative to Vehicle control: Statistically significant reductions
  NAFLD activity score relative to Vehicle control: Statistically significant reductions
  fibrosis area (Sirius red-positive area) compared with the Vehicle group: significant decreases
[1]
  NAFLD Activity Scores, hepatic steatosis, lobular inflammation and hepatocellular ballooning (conclusion): showed improvement
[1]; [3]
  fibrosis area (Sirius red-positive area) compared with the Vehicle group: statistically significant decreases
[1]; [4]
  NAFLD activity score relative to Vehicle control: Statistically significant reductions
[1]; once daily oral, 6 to 9 weeks of age, Bromantane high 40 mg/kg, Telmisartan 10 mg/kg
  steatosis score relative to Vehicle control: Statistically significant reductions
[1]; once daily oral, 6 to 9 weeks of age, Bromantane low 20 mg/kg
  fibrosis area (Sirius red-positive area) compared with the Vehicle group: statistically significant decreases

## CCCCOCCOc1ccc(-c2ccc3c(c2)/C=C(/C(=O)Nc2ccc([S@@+]([O-])Cc4cncn4CCC)cc2)CCCN3CC(C)C)cc1 [Cenicriviroc]
[1]
  NAFLD Activity Scores, hepatic steatosis, lobular inflammation and hepatocellular ballooning (conclusion): showed improvement
[1]; [3]
  fibrosis area (Sirius red-positive area) compared with the Vehicle group: statistically significant decreases
[1]; [4]
  NAFLD activity score relative to Vehicle control: Statistically significant reductions

## Nc1nc(N)nc(-c2cc(Cl)ccc2Cl)n1 [Irsogladine, 6-(2,5-Dichlorophenyl)-1,3,5-triazine-2,4-diamine]
[2]
  hepatocellular ballooning score relative to Vehicle control: Statistically significant reductions

## CCn1c(=O)c2c(nc(/C=C/c3ccc(OC)c(OC)c3)n2C)n(CC)c1=O [Istradefylline, 8-[(E)-2-(3,4-dimethoxyphenyl)vinyl]-1,3-diethyl-7-methyl-3,7-dihydro-1H-purine-2,6-dione]
[2]; Istradefylline at 18 mg/kg, Telmisartan at 10 mg/kg oral, compared to the Vehicle group
  NAFLD Activity Scores, hepatic steatosis, lobular inflammation and hepatocellular ballooning (conclusion): showed improvement
[2]
  hepatocellular ballooning score relative to Vehicle control: Statistically significant reductions
  NAFLD activity score relative to Vehicle control: Statistically significant reductions
  fibrosis area (Sirius red-positive area) compared with the Vehicle group: significant decreases
